Patent US20240261422A1, “ANTHRACYCLINE ANTIBODY CONJUGATES” (SEAGEN INC., priority 2021, published 2024)
Where two headings read alike, the source gives them in different places.

How the values were obtained:
HL60/RV, MDR + AML = test: In vitro growth inhibition (CellTiter-Glo, 96 h), HL60/RV; assay type: cell-based; conditions: Homo sapiens, HL-60; anthracycline free drugs, 96 h; read-out: IC50 (nM) HL60/RV, MDR + AML
Method: (§1) Cell culture of cell lines as listed in Table 2-4 in log-phase growth were seeded in 96-well plates and grown for 24 h in cell culture media containing 150 μL RPMI 1640 supplemented with 20% FBS (see Mol. Cancer Ther., 2016, 15(5), 938-945 and Mol. Cancer Ther., 2018, 17(8), 1752-1760). Serial dilutions of free drugs or antibody-drug conjugates (final concentration between 0.004 nM and 1 μM) in cell culture media were prepared at 4× working concentrations; 50 μL of each dilution was added to the 96-well plates. Following addition of the drug or ADC, the cells were incubated with test articles (free drugs or ADCs) for 4 d at 37° C. After 96 h, growth inhibition was assessed by CellTiter-Glo® (Promega, Madison, WI) and luminescence was measured on a plate reader (brand, model).
(§2) Cells were treated for 96 hours with anthracycline analogues listed in Table 2, and then assessed for viability as described in the procedures as described above. […] ND denotes value not determined with that assay for the specified compound.
(§3) ADCs were prepared by full reduction of interchain disulfides to reveal 8-conjugatable cysteines/antibody, and subsequent alkylation with the maleimide-containing drug-linkers (Compounds 14, 18, 21, 24, 29, 32, 33, 34, and 48) according to the procedures described in Mol. Cancer Ther. 2018, 17(8). 1752-1760. Conjugates of antibody cOKT9 were prepared with anthracycline linkers. Cancer cell lines were treated with cOKT9 ADCs (average DAR of 8:1) for 96 h and then assessed for viability. […] ND denotes value not determined with that assay for the specified compound.

[1] = test system: L540cy, 786-O, BxPC3, HL60, HL60/RV; test: cells; conditions: 96 h, read-out: IC50 values on the cancer lines tested
HL60, AML = test: In vitro growth inhibition (CellTiter-Glo, 96 h), HL60; assay type: cell-based; conditions: Homo sapiens, HL-60; anthracycline free drugs, 96 h; read-out: IC50 (nM) HL60, AML
Method: as §1, §2, §3

786-O, MDR + RCC = test: In vitro growth inhibition (CellTiter-Glo, 96 h), 786-O; assay type: cell-based; conditions: Homo sapiens, read-out: IC50 (nM) 786-O, MDR + RCC
Method: as §1, §2, §3

BxPC3, PancCa = test: In vitro growth inhibition (CellTiter-Glo, 96 h), BxPC3; assay type: cell-based; conditions: Homo sapiens, read-out: IC50 (nM) BxPC3, PancCa
Method: as §1, §2, §3

L540cy, HL = test: In vitro growth inhibition (CellTiter-Glo, 96 h), L540cy; assay type: cell-based; conditions: L540cy, 96 h, read-out: IC50 (nM) L540cy, HL
Method: as §1, §2, §3
Anti-CD30 ADCs comprising cAC10 antibody conjugated to drug-linkers 24, 32, 29, 18, 14, and 48 with an average DAR of 4 were prepared for evaluation on a CD30-expressing lymphoma cell line panel. […] Anti-CD30 conjugates bearing the PNU linkers 24, 32, 29, 18, and 14 were active on L540cy, DEL, and Karpas299 lymphoma cell lines, and conjugate 48 was active on L540cy and DEL cell lines, with IC50s ranging from 0.2-4 ng/mL.

[2] = 786-0, anthracycline free drugs, 96 h
[3] = BXPC-3, anthracycline free drugs, 96 h

| IC50 (HL60/RV, MDR + AML) | IC50 [1] | IC50 (HL60, AML) | IC50 (786-O, MDR + RCC; [2]) | IC50 (BxPC3, PancCa; [3]) | Compound | IC50 (L540cy, HL; anthracycline free drugs) | IC50 (786-O, MDR + RCC; 786-0, 96 h) | IC50 (BxPC3, PancCa; BXPC-3, 96 h) | IC50 (L540cy, HL) |
| --- | --- | --- | --- | --- | --- | --- | --- | --- | --- |
| 100 to 1000 nM | 0.013 to 0.39 µM | 10 to 100 nM | 10 to 100 nM | 100 to 1000 nM | COc1cccc2c1C(=O)c1c(O)c3c(c(O)c1C2=O)C[C@@](O)(C(=O)CO)C[C@@H]3O[C@H]1C[C@H](N)[C@H](O)[C@H](C)O1 [Compound 1, Doxorubicin, reference compound] | 10 to 100 nM | – | – | – |
| > 1000 nM | > 1 µM | > 1000 nM | > 1000 nM | > 1000 nM | COc1cccc2c1C(=O)c1c(O)c3c(c(O)c1C2=O)C[C@@](O)(C(=O)O)C[C@@H]3O[C@H]1C[C@H](N)[C@H](O)[C@H](C)O1 [Compound 2, (2S,4S)-4-(((2R,4S,5S,6S)-4-amino-5-hydroxy-6-methyltetrahydro-2H-pyran-2-yl)oxy)-2,5,12-trihydroxy-7-methoxy-6,11-dioxo-1,2,3,4,6,11-hexahydrotetracene-2-carboxylic acid] | > 1000 nM | – | – | – |

| Compound | IC50 (HL60/RV, MDR + AML) | IC50 [1] | IC50 (HL60, AML) | IC50 (786-O, MDR + RCC; [2]) | IC50 (BxPC3, PancCa; [3]) | IC50 (L540cy, HL; anthracycline free drugs) | IC50 (786-O, MDR + RCC; 786-0, 96 h) | IC50 (BxPC3, PancCa; BXPC-3, 96 h) | IC50 (L540cy, HL) |
| --- | --- | --- | --- | --- | --- | --- | --- | --- | --- |
| COc1cccc2c1C(=O)c1c(O)c3c(c(O)c1C2=O)C[C@@](O)(C(=O)CO)C[C@@H]3O[C@H]1C[C@H](N2CCO[C@H](OC)C2)[C@H](O)[C@H](C)O1 [Compound 3, Nemorubicin, reference compound] | – | 0.002 to 0.003 µM | – | – | – | – | < 10 nM | < 10 nM | < 10 nM |
